Reference: PMC8898348 (Journal of the Indian Chemical Society, 2022)
Like-named read-outs stand apart in the source and are kept apart here. Where a SMILES comes first, the peptide text is derived from it. The star is where a group is joined. MeOSuc = COC(=O)CCC(=O)*; CH2Cl = ClC*

Key:
95D = assay: MTT cytotoxicity assay, 95D; type: cell-based; conditions: Homo sapiens, read-out: 95D IC50
[1] = tested on: SPC-A-1, SK-LU-1, and 95D human lung cancer cell lines; assay: MTT cytotoxicity assay, three lung cancer cell lines together; type: cell-based; conditions: read-out: IC50 growth inhibition in the three lung cancer cells
SK-LU-1 = assay: MTT cytotoxicity assay, SK-LU-1; type: cell-based; conditions: Homo sapiens, SK-LU-1, read-out: SK-LU-1 IC50
Collagenase = assay: collagenase enzyme inhibition, spectrophotometric; type: biochemical; conditions: read-out: Collagenase IC50
Elastase = Elastase (Sus scrofa, UniProt P00772); assay: elastase inhibitory activity, spectrophotometric; type: biochemical
Chain of Elastase (P00772 27-266): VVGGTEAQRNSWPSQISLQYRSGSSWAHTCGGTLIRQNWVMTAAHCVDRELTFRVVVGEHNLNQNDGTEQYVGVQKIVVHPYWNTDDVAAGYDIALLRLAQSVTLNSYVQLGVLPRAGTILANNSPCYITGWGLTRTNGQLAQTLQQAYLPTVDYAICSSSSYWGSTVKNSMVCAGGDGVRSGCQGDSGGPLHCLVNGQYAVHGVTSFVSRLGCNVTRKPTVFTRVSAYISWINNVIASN

Row | SMILES | IC50 (95D) | IC50 [1] | IC50 (SK-LU-1) | IC50 (Collagenase) | IC50 (Elastase) | IC50 (Elastase; read-out: Elastase IC50)
1 | COc1cccc2c1C(=O)c1c(O)c3c(c(O)c1C2=O)C[C@@](O)(C(=O)CO)C[C@@H]3O[C@H]1C[C@H](N)[C@H](O)[C@H](C)O1 [Doxorubicin, reference compound] | 25 µM | 25 to 30 µM | 25 µM | – | – | –
2 | OC[C@H](Cc1cccc(O)c1)[C@H](CO)Cc1cccc(O)c1 [Enterodiol] | 64.1 µM | – | 67.3 µM | 104 ± 11.3 µM | 11.1 ± 1.87 µM | –
3 | O=C1OC[C@H](Cc2cccc(O)c2)[C@H]1Cc1cccc(O)c1 [Enterolactone] | 41.1 µM | – | 45.8 µM | 9.66 ± 1.52 µM | 22.5 ± 4.08 µM | –
4 | COc1ccc(/C=C/C(=O)c2c(O)cc(OC)cc2OC)cc1 [Flavokawain A] | 22.4 µM | 12 to 30 µM | 23.3 µM | 66.3 ± 7.95 µM | 27.3 ± 4.67 µM | –
5 | COc1cc(O)c(C(=O)/C=C/c2ccccc2)c(OC)c1 [Flavokawain B] | 32.6 µM | 12 to 30 µM | 29.3 µM | 71.1 ± 16 µM | 20.1 ± 2.36 µM | –
6 | COc1cc(O)c(C(=O)/C=C/c2ccc(O)cc2)c(OC)c1 [Flavokawain C] | 21 µM | 12 to 30 µM | 22.7 µM | 62.1 ± 9.43 µM | 17.6 ± 1.68 µM | –
7 | COC(=O)CCC(=O)N[C@@H](C)C(=O)N[C@@H](C)C(=O)N1CCC[C@H]1C(=O)N[C@H](C(=O)CCl)C(C)C [N-(Methoxysuccinyl)-Ala-Ala-Pro-Val-chloromethyl ketone, reference compound] (MeOSuc-AAPV-CH2Cl) | – | – | – | – | – | 30.6 ± 3.25 µM
8 | CC(C)C[C@H](NP(=O)(O)O[C@@H]1O[C@@H](C)[C@H](O)[C@@H](O)[C@H]1O)C(=O)N[C@@H](Cc1c[nH]c2ccccc12)C(=O)O [Phosphoramidon, reference compound] | – | – | – | 101 ± 14.8 µM | – | –
